Measured values published in PMC5371824, “Phosphatidylinositol (4,5)-bisphosphate dynamically regulates the K2P background K^+ channel TASK-2” (Scientific Reports, 2017).
Changes are numbered by the printed parent chain.

How the values were obtained:
TASK-2-R438C = experiment: Excised inside-out patch recording, TASK-2-R438C mutant; type: biochemical, Mus musculus; design: key to MTSET effect: ✓ under “MTSET effect” indicates a significant increase in current after treatment with the methanesulfonate reagent; — in all cases stands for no significant effect
Description: Mus musculus TASK-2 (GenBank accession No. AF319542) plasmid was that obtained from mouse kidney. The cDNAs was subcloned into the pCR3.1 vector. Mutations were made by site-directed mutagenesis into the pCR3.1 vector as previously described[69] and confirmed by sequencing. HEK-293 cells were cultured in Dulbecco’s modified Eagle’s medium (DMEM) and F12 Ham’s medium at a 1:1 ratio and supplemented with 10% fetal calf serum at 37 °C in 5% CO2. For electrophysiological experiments, transient transfections were performed by electroporation, using CD8 cotransfection to identify effectively transfected cells. […] Experiments were performed 4–8 h after electroporation. In experiments with the voltage-sensitive phosphatase TASK-2 or its mutants were co-electroporated with a pCR3.1-DrVSP-IRES-CD8 vector.
Recordings in the inside-out isolated patch configuration were performed in the gap-free mode at −60 mV. The inside aspect of the patch was bathed with a solution containing in mM: 10 KCl, 10 Glucose, 1 MgCl2, 10 EGTA, 1 Na3ATP, 0.1 GTP, 6.8 g/100 ml Sucrose, 10 Hepes/Tris, pH 7.4. The pipette contained in mM: 140 KCl, 10 Glucose, 6.8 g/100 ml Sucrose, 10 Hepes/Tris pH 7.4. For isolated patches, borosilicate capillaries (Harvard Apparatus GC150F-10 1.5 ODx0.86 ID) were fire polished to 4–5 MΩ and covered in beeswax. Acquisition was at 10 kHz with filter at 3 kHz (4-pole Bessel) and analysis was done with Clampfit 9.0 (Axon Instruments, Foster City, CA, USA). Traces shown are prints from crude Clampfit screen shots and quantification was done using the average currents were calculated at intervals using Clampfit after baseline adjustment.
Fig. S7. Concentration ependence for the inhibition of TASK-2 mutant R438C by
intracellular neomycin. Recording were obtained from excised inside-out patches of
membrane taken from a HEK-293 cells over-expressing TASK-2-R438C. The patches were
held at -60 mV in the presence of 1 mM intracellular ATP. Neomycin was increased
stepwise from 5 to 500 µM in the solution bathing the intracellular aspect of the membrane. […]

TASK-2-R4C = target: T1, TASK-2-R4C (Mus musculus, UniProt F6V9U5, R4C); experiment: Excised inside-out patch recording, TASK-2-R4C mutant; type: biochemical; design: key to MTSET effect: ✓ under “MTSET effect” indicates a significant increase in current after treatment with the methanesulfonate reagent; — in all cases stands for no significant effect
T1 construct: expressed in transfected cells; host or cells: HEK-293
T1 sequence (F6V9U5 1-502 R4C): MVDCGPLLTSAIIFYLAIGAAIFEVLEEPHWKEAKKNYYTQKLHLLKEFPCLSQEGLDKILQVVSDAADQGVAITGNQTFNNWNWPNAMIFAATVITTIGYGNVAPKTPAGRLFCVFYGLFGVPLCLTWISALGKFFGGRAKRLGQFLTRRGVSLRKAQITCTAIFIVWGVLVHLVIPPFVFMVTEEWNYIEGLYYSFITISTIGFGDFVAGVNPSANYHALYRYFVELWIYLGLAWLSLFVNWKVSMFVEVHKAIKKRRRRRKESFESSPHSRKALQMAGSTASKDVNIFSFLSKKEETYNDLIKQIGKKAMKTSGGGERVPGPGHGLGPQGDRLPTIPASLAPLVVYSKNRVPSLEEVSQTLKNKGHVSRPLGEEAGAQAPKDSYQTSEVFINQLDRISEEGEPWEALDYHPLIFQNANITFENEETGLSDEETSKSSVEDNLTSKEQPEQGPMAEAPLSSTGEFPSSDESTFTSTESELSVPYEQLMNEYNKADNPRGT
Description: (§1) Figure 6 Scanning of potential sites of interaction of TASK-2 with PI(4,5)P2 by cysteine mutagenesis of intracellular basic residues. (A) Schematic representation of TASK-2 topology showing the sequences of segments of the protein predicted to be intracellular or intracellular-facing. Basic residues are highlighted in red. (B) Recording from an excised inside-out patch of membrane taken from a HEK-293 cell over-expressing TASK-2. The patch was held at −60 mV in the presence of 1 mM ATP. At the intervals indicated by the boxes the intracellular aspect of the membrane was exposed to 300 μM Neomycin and then to 100 μM TPeA. At the end of the TPeA period the patch was additionally exposed to 1 mM MTSET as shown by the black box. (C and D) experiments as in (B), but with inside-out membrane patches obtained from cells expressing the mutants TASK-2-H327C and TASK-2-K297C respectively. In D the reducing agent DTT was also added at 2 mM. (E) Summary of experiments comparing the current before and after treatment with MTSET. […]
(§2) Recordings in the inside-out isolated patch configuration were performed in the gap-free mode at −60 mV. […] Traces shown are prints from crude Clampfit screen shots and quantification was done using the average currents were calculated at intervals using Clampfit after baseline adjustment.

TASK-2-H327C = target: T2, TASK-2-H327C (Mus musculus, UniProt F6V9U5, H327C); experiment: Excised inside-out patch recording, TASK-2-H327C mutant; type: biochemical; settings: 1 mM, brief intracellular exposure in the presence of TPeA
T2 construct: expressed in transfected cells; host or cells: HEK-293
T2 sequence (F6V9U5 1-502 H327C): T1 sequence (F6V9U5 1-502 R4C) with C4R, H327C
Description: as §1, §2

[1] = 1 mM, in the presence of TPeA, inside-out patch

- Effect of MTSET on TASK-2-R4C activity (TASK-2-R4C; [1]): not affected
- MTSET effect (TASK-2-R4C; mutation R4C): —
SMILES: C[N+](C)(C)CCSS(C)(=O)=O.[Cl-] [MTSET, [2-(trimethylammonium)ethyl] methanethiosulfonate chloride]
- Effect of MTSET on TASK-2-R438C activity (TASK-2-R438C; [1]): not affected
- MTSET effect (TASK-2-R438C; mutation R438C): —
- Effect of MTSET on TASK-2-H327C channel activity (TASK-2-H327C): Neither WT nor H327C channel activity is affected
